Results from ChEMBL document CHEMBL5584228, “Novel saturated 1,2,4-trioxanes and their antimalarial activity against multidrug resistant Plasmodium yoelii nigeriensis in Swiss mice model via oral route” (2024).
Active and inactive are the calls of the source. The calls are words filed in the database; no cut-off is given here.

Legend:
[1] = system: Plasmodium yoelii nigeriensis; experiment: Antimalarial activity against multi-drug resistant Plasmodium yoelii nigeriensis infected in swiss mouse model assessed as suppression of parasitemia at 96 mg/kg, po administered for 4 days relative to control; type: functional; details: time 4 day
[2] = system: Plasmodium yoelii nigeriensis; experiment: Antimalarial activity against multi-drug resistant Plasmodium yoelii nigeriensis infected in swiss mouse model at 96 mg/kg, po administered for 4 days and measured within 6 to 8 days; type: functional, organism-based; details: time 6-8 day
[3] = system: Plasmodium yoelii nigeriensis; experiment: Antimalarial activity against multi-drug resistant Plasmodium yoelii nigeriensis infected in swiss mouse model assessed as suppression of parasitemia at 48 mg/kg, po administered for 4 days relative to control; type: functional; details: time 4 day
[4] = system: Plasmodium yoelii nigeriensis; experiment: Antimalarial activity against multi-drug resistant Plasmodium yoelii nigeriensis infected in swiss mouse model at 48 mg/kg, po administered for 4 days and measured within 6 to 8 days; type: functional, organism-based; details: time 6-8 day
[5] = system: Plasmodium yoelii nigeriensis; experiment: Antimalarial activity against multi-drug resistant Plasmodium yoelii nigeriensis infected in swiss mouse model assessed as suppression of parasitemia at 24 mg/kg, po administered for 4 days relative to control; type: functional; details: time 4 day
[6] = system: Plasmodium yoelii nigeriensis; experiment: Antimalarial activity against multi-drug resistant Plasmodium yoelii nigeriensis infected in swiss mouse model assessed as suppression of parasitemia at 12 mg/kg, po administered for 4 days relative to control; type: functional; details: time 4 day
[7] = system: Plasmodium yoelii nigeriensis; experiment: Antimalarial activity against multi-drug resistant Plasmodium yoelii nigeriensis infected in swiss mouse model assessed as suppression of parasitemia at 6 mg/kg, po administered for 4 days relative to control; type: functional; details: time 4 day
[8] = system: Plasmodium yoelii nigeriensis; experiment: Antimalarial activity against multi-drug resistant Plasmodium yoelii nigeriensis infected in swiss mouse model assessed as animal survival at 12 to 48 mg/kg, po administered for 4 days and measured after 28 days; type: functional; details: dose 12-48 mg/kg, time 28 day
[9] = system: Plasmodium yoelii nigeriensis; experiment: Antimalarial activity against multi-drug resistant Plasmodium yoelii nigeriensis infected in swiss mouse model at 12 mg/kg, po administered for 4 days and measured within 6 to 8 days; type: functional, organism-based; details: time 6-8 day
[10] = system: Plasmodium yoelii nigeriensis; experiment: Antimalarial activity against multi-drug resistant Plasmodium yoelii nigeriensis infected in swiss mouse model at 24 mg/kg, po administered for 4 days and measured within 6 to 8 days; type: functional, organism-based; details: time 6-8 day

| SMILES | Activity [1] [%] | Activity [2] | Activity [3] [%] | other results |
| --- | --- | --- | --- | --- |
| C=C(c1ccc(Oc2cccc3ccccc23)cc1)C1COC2(CCCCC2)OO1 (stereo not drawn) | 92.81 | inactive | – | – |
| C=C(c1ccc(Oc2ccccc2)cc1)C1COC2(CCCCC2)OO1 (stereo not drawn) | 100 | – | – | – |
| C[C@H](c1ccc(Oc2ccccc2)cc1)C1COC2(OO1)C1CC3CC(C1)CC2C3 (stereo partly drawn) | 100 | Active | 100 | – |
| C=C(c1ccc(Oc2cccc3ccccc23)cc1)C1COC2(OO1)C1CC3CC(C1)CC2C3 (stereo not drawn) | 93.15 | inactive | – | – |
| C[C@@H](c1ccc(Oc2cccc3ccccc23)cc1)C1COC2(CCCC2)OO1 (stereo partly drawn) | 100 | inactive | – | – |
| C=C(c1ccc(Oc2ccccc2)cc1)C1COC2(OO1)C1CC3CC(C1)CC2C3 (stereo not drawn) | 100 | – | – | – |
| C[C@@H](c1ccc(Oc2ccccc2)cc1)C1COC2(OO1)C1CC3CC(C1)CC2C3 (stereo partly drawn) | 100 | inactive | – | – |
| C[C@@H](c1ccc(Oc2ccc(-c3ccccc3)cc2)cc1)C1COC2(OO1)C1CC3CC(C1)CC2C3 (stereo partly drawn) | 90 | inactive | – | – |
| C[C@H](c1ccc(Oc2ccccc2)cc1)C1COC2(CCCC2)OO1 (stereo partly drawn) | 100 | Active | 60 | – |
| C=C(c1ccc(Oc2ccc3ccccc3c2)cc1)C1COC2(OO1)C1CC3CC(C1)CC2C3 (stereo not drawn) | 100 | – | – | – |
| C[C@@H](c1ccc(Oc2ccc3ccccc3c2)cc1)C1COC2(OO1)C1CC3CC(C1)CC2C3 (stereo partly drawn) | 100 | inactive | – | – |
| C=C(c1ccc(Oc2ccc(-c3ccccc3)cc2)cc1)C1COC2(CCCC2)OO1 (stereo not drawn) | 100 | Active | 100 | Activity [4]: inactive |
| C[C@H](c1ccc(Oc2ccc(-c3ccccc3)cc2)cc1)C1COC2(CCCCC2)OO1 (stereo partly drawn) | 100 | – | – | – |
| C[C@H](c1ccc(Oc2ccc3ccccc3c2)cc1)C1COC2(CCCC2)OO1 (stereo partly drawn) | – | – | 100 | Activity [5]: 100%; Activity [6]: 100%; Activity [7]: 60%; Survival [8]: >28 days; Activity [9]: Active |
| C[C@H](c1ccc(Oc2ccc3ccccc3c2)cc1)C1COC2(OO1)C1CC3CC(C1)CC2C3 (stereo partly drawn) | 100 | Active | 60 | – |
| C[C@@H](c1ccc(Oc2ccc(-c3ccccc3)cc2)cc1)C1COC2(CCCCC2)OO1 (stereo partly drawn) | 100 | inactive | – | – |
| C[C@@H](c1ccc(Oc2ccc3ccccc3c2)cc1)C1COC2(CCCC2)OO1 (stereo partly drawn) | 100 | Active | 100 | – |

| SMILES | Activity [1] [%] | Activity [2] | Activity [3] [%] | other results |
| --- | --- | --- | --- | --- |
| C=C(c1ccc(Oc2cccc3ccccc23)cc1)C1COC2(CCCC2)OO1 (stereo not drawn) | 100 | Active | 100 | Activity [5]: 100%; Activity [4]: Active; Activity [10]: inactive |
| C=C(c1ccc(Oc2ccc3ccccc3c2)cc1)C1COC2(CCCC2)OO1 (stereo not drawn) | 100 | Active | 100 | Activity [5]: 100%; Activity [4]: Active; Activity [10]: inactive |
| C=C(c1ccc(Oc2ccccc2)cc1)C1COC2(CCCC2)OO1 (stereo not drawn) | 100 | – | – | – |
| C[C@H](c1ccc(Oc2ccc(-c3ccccc3)cc2)cc1)C1COC2(CCCC2)OO1 (stereo partly drawn) | – | – | 100 | Activity [5]: 100%; Activity [6]: 60% |
| C[C@@H](c1ccc(Oc2ccccc2)cc1)C1COC2(CCCC2)OO1 (stereo partly drawn) | 80 | inactive | – | – |
| C[C@H](c1ccc(Oc2cccc3ccccc23)cc1)C1COC2(CCCC2)OO1 (stereo partly drawn) | – | – | 100 | Activity [5]: 100%; Activity [6]: 80% |
| C[C@@H](c1ccc(Oc2cccc3ccccc23)cc1)C1COC2(CCCCC2)OO1 (stereo partly drawn) | 100 | inactive | – | – |
| C[C@H](c1ccc(Oc2ccc(-c3ccccc3)cc2)cc1)C1COC2(OO1)C1CC3CC(C1)CC2C3 (stereo partly drawn) | 100 | Active | 100 | – |
| C[C@H](c1ccc(Oc2cccc3ccccc23)cc1)C1COC2(OO1)C1CC3CC(C1)CC2C3 (stereo partly drawn) | 100 | – | – | – |
| C[C@@H](c1ccc(Oc2cccc3ccccc23)cc1)C1COC2(OO1)C1CC3CC(C1)CC2C3 (stereo partly drawn) | 70 | inactive | – | – |
| C[C@@H](c1ccc(Oc2ccccc2)cc1)C1COC2(CCCCC2)OO1 (stereo partly drawn) | 100 | inactive | – | – |
| C[C@H](c1ccc(Oc2cccc3ccccc23)cc1)C1COC2(CCCCC2)OO1 (stereo partly drawn) | 100 | – | – | – |
| C=C(c1ccc(Oc2ccc(-c3ccccc3)cc2)cc1)C1COC2(CCCCC2)OO1 (stereo not drawn) | 84.39 | inactive | – | – |
| CCO[C@H]1O[C@@H]2O[C@@]3(C)CC[C@H]4[C@H](C)CC[C@@H]([C@H]1C)[C@@]24OO3 [ARTEMOTIL] | – | – | 100 | Activity [5]: 100%; Activity [4]: Active |
| C[C@@H](c1ccc(Oc2ccc(-c3ccccc3)cc2)cc1)C1COC2(CCCC2)OO1 (stereo partly drawn) | 100 | inactive | – | – |
| C[C@H](c1ccc(Oc2ccccc2)cc1)C1COC2(CCCCC2)OO1 (stereo partly drawn) | 100 | Active | 80 | – |
| C=C(c1ccc(Oc2ccc(-c3ccccc3)cc2)cc1)C1COC2(OO1)C1CC3CC(C1)CC2C3 (stereo not drawn) | 100 | – | – | – |
